Test results: EP0335902B1, “MONOMERIC PHTHALOCYANINE REAGENTS” (BRITISH TECHNOLOGY GROUP USA INC., priority 1986, dated 1988)
Read-outs that look alike come from different tables or passages of the source.

Experiments:
[1] = test system: antimorphine monoclonal antibody; assay: competition experiment with antimorphine monoclonal antibody and tritium-labeled morphine (relative immunoaffinity); type: binding
Description: The relative immunoaffinity of morphine, the amino morphine analog, and the amino-morphine derivative of mono-PABA-sulfonyl aluminum phthalocyanine disulfonate was determined in a competition experiment with antimorphine monoclonal antibody and tritium-labeled morphine.

[2] = solubility of aluminum phthalocyanines in water and solvents; details: for solubility in polar, protic solvents such as methanol: effect of axial ligand L
Description: The following "R" substituents (R₁ and/or R₂) bound to the phthalocyanine macrocycle 1 can serve as suitable water-solubilizing moieties: sulfonic acid groups (-SO₃H), sulfonate groups (-SO₃⁻, X⁺), carboxylic acid groups (-CO₂H), carboxylate groups (-CO₂⁻, X⁺), phosphoric acid groups (-PO₄H₂), phosphate groups (-PO₄⁻⁻, 2X⁺), phosphonate groups (-PO₃H or -PO₃⁻, X⁺), hydroxy or phenoxy groups (-OH), amino groups (-NH₂), and ammonium and pyridinium groups (-NR₄⁺, X⁻).
To enhance water solubility, L should be -OZ or -NZ₂ wherein Z is selected from among hydrogen, alkyl, acyl, and silyl groups, the latter three preferably being charged.

[3] = fluorescence and UV-VIS spectroscopy of phthalocyanine derivatives; type: physicochemical
Description: As a family of chromophores the metallophthalocyanines are characterized by a very narrow and strong absorption in the red envelope centered around 670 nm (Eo=230,000) and a broad and less intense absorption (Eo=60,000) at around 350 nm.
It is contemplated that other metal atoms (M) with +3 valences or higher may take on an axial ligand(s) in the phthalocyanine macrocycle, thereby conferring a similar resistance to aggregation in aqueous solution. For use as fluorescent species, the metal should be diamagnetic and have a lower atomic weight than that of […], so as to avoid a heavy-atom quenching effect; suitable metal atoms for the latter purpose include aluminum, silicon, phosphorus, gallium, germanium, and tin. […] Both processes give rise to radiationless deactivation of the excited state and serve to decrease the fluorescent quantum yield.
The ultimate sensitivity of a fluorogenic enzyme assay is determined by the spectral properties of the generated fluorophore.

[4] = λmax 678.5 nm, in chloronaphthalene; cited from earlier work
[5] = type: physicochemical
Description: The phthalocyanines are thermally stable, and are often purified by sublimation at temperatures greater than 400°C. Chemically, the phthalocyanines are resistant to acidic or basic hydrolysis, oxidation, and reduction.

3-(4-aminobutyl)morphine [amino morphine]
Relative Affinity ([1]; relative affinity of antimorphine monoclonal antibody for competitor versus tritium-labeled morphine): 1

[OH][Al]1[n]2c3c4ccccc4c2N=C2N=C(N=c4c5ccccc5c([n]41)=NC1=NC(=N3)c3ccccc31)c1ccccc12 [aluminum phthalocyanine, reference compound]
solubility in water ([2]; water): poorly soluble in water
Stokes shift [3]: 330 nm

[Cl][Al]1[n]2c3c4ccccc4c2/N=C2N=C(/N=c4/c5ccccc5/c([n]41)=N/C1=NC(=N\3)/c3ccccc31)c1ccccc1\2 [chloraluminum phthalocyanine]
solubility in polar, protic solvents such as methanol [2]: but not chloraluminum phthalocyanine is soluble in polar, protic solvents

c1ccc2c(c1)C1=NC2=Nc2c3ccccc3c3[n]2[Cu][n]2c(c4ccccc4c2=NC2=NC(=N3)c3ccccc32)=N1 [compound 9, Copper phthalocyanine]
molar absorptivity ε [4]: 218,500

[OH][Al]1[n]2c3c4ccccc4c2N=C2N=C(N=c4c5ccccc5c([n]41)=NC1=NC(=N3)c3ccccc31)c1ccccc12 [hydroxyaluminum phthalocyanine]
solubility in polar, protic solvents such as methanol [2]: soluble in polar, protic solvents such as methanol

CN1CC[C@]23c4c5ccc(O)c4O[C@H]2[C@@H](O)C=C[C@H]3[C@H]1C5 [morphine, reference compound]
Relative Affinity [1]: 1

aluminum phthalocyanine trisulfonate
solubility in water [2]: high water solubility
Stokes shift [3]: 335 nm
fluorescence emission lifetime [3]: 5 ns
polarization coefficient [3]: 0.005
quantum yield when aggregated ([3]; aggregated): < 0.02
quantum yield when aggregated, of its original value ([3]; aggregated): less than 4%
emission wavelength ([3]; excitation at 350 nm): 680 nm
photochemical stability [5]: photochemically inert

copper(II)phthalocyanine trisulfonate [reference compound]
fluorescence quantum yield relative to aluminum(III)phthalocyanine trisulfonate ([3]; comparative example): more than 200 times less
